# Assay results published in ChEMBL document CHEMBL1275404, “Disulfide cyclized tripeptide analogues of angiotensin IV as potent and selective inhibitors of insulin-regulated aminopeptidase (IRAP)” (J Med Chem, 2010).
# Biological target: Aminopeptidase N (Homo sapiens, UniProt P15144)
# Experiment: Inhibition of catalytic activity of human recombinant aminopeptidase N expressed in HEK293 cells
# Assay type: cell-based
# Chain of Aminopeptidase N (P15144 whole entry): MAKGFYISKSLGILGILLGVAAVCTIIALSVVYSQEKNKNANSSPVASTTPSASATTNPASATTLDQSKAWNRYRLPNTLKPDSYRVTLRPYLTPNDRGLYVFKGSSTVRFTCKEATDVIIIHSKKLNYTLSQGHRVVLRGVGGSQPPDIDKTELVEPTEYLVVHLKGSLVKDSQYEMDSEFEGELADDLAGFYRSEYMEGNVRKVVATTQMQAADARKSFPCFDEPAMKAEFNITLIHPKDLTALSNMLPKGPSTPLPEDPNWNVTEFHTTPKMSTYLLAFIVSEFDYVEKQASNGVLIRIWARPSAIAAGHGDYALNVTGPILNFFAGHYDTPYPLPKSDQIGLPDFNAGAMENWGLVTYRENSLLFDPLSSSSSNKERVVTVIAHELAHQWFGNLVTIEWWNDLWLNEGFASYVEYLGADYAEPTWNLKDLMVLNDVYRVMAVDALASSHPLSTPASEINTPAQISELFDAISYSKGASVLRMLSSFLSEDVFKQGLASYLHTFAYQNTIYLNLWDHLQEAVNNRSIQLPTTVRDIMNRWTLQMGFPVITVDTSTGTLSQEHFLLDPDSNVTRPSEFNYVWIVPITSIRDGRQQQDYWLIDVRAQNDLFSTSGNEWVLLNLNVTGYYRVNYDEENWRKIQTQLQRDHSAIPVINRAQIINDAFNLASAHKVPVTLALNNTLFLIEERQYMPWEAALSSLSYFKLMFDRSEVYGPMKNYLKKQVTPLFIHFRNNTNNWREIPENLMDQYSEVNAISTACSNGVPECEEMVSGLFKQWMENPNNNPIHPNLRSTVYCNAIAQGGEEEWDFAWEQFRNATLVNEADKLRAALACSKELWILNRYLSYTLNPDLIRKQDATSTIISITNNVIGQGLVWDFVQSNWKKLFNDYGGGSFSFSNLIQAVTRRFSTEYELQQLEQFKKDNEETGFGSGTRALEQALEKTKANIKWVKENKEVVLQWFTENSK
row,SMILES,Ki
1,N[C@H]1CCSSC[C@H](C(=O)NCc2ccccc2CC(=O)O)NC(=O)C[C@H](Cc2ccc(O)cc2)NC1=O,10.8 µM
2,N[C@H]1CCSSC[C@@H](C(=O)NCc2ccccc2CC(=O)O)NC(=O)C[C@H](Cc2ccc(O)cc2)NC1=O,7.25 µM
